Holding throughout (assay type): biochemical
One experiment has as its target T1, Recombinant human HDAC2 (Homo sapiens, UniProt Q92769).
T1 construct: Full length human HDAC2-FLAG was expressed in baculovirus infected Sf9 cells; FLAG (C); made in house; host or cells: Sf9 (baculovirus)
As to the kind of experiment: Human HDAC enzyme inhibitor Fluor-de-Lys assay, HDAC2. The settings on record: recombinant human HDAC2, Fluor-de-Lys assay. The gist of the method: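 Fluor-de-Lys format at room temperature (23° C.): compounds titrated 10-point, 1:3, preincubated with HDAC before substrate addition. Developer with excess HDAC inhibitor ends the reaction, and trypsin-liberated AMC fluorescence is the read-out.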

The target in another experiment is T2, HDAC6 (Homo sapiens, UniProt Q9UBN7).
T2 sequence (Q9UBN7 1-1215): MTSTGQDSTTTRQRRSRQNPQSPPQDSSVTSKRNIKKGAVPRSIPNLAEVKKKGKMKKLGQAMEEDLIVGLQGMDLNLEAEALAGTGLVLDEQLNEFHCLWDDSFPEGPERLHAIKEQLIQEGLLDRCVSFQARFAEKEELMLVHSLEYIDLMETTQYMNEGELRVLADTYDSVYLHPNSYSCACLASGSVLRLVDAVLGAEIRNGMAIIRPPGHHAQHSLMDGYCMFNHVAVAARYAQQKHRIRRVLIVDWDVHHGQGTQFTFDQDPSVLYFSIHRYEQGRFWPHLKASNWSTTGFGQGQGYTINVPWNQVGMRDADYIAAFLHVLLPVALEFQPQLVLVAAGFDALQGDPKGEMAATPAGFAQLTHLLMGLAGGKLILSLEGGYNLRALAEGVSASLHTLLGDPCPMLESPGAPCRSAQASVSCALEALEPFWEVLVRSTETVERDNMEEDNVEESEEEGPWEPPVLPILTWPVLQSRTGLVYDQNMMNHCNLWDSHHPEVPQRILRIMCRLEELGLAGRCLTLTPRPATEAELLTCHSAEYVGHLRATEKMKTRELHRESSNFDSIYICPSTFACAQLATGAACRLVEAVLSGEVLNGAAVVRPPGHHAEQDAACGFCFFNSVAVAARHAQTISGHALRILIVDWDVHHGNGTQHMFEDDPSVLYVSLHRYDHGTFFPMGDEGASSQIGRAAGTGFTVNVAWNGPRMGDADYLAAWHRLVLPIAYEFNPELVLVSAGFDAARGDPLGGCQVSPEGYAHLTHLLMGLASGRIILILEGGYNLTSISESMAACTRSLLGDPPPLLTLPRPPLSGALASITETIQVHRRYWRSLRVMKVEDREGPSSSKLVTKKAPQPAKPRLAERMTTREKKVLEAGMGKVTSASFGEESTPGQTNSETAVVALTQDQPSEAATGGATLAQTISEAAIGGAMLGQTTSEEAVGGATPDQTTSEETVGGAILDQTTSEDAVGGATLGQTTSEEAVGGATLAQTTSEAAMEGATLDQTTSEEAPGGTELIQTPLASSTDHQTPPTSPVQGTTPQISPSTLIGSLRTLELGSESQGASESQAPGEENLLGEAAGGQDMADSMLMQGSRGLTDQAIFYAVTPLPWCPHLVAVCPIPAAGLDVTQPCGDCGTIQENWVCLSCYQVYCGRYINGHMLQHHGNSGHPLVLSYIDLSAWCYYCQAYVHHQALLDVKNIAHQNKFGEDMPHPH
Briefly: Human HDAC enzyme inhibitor Fluor-de-Lys assay, HDAC6. The settings on record: HDAC6, Fluor-de-Lys assay.

A further experiment addresses T3, Recombinant human HDAC8 (Homo sapiens, UniProt Q9BY41).
T3 construct: purchased Enzo Life Sciences BML-SE145-0100
T3 sequence (Q9BY41 1-377): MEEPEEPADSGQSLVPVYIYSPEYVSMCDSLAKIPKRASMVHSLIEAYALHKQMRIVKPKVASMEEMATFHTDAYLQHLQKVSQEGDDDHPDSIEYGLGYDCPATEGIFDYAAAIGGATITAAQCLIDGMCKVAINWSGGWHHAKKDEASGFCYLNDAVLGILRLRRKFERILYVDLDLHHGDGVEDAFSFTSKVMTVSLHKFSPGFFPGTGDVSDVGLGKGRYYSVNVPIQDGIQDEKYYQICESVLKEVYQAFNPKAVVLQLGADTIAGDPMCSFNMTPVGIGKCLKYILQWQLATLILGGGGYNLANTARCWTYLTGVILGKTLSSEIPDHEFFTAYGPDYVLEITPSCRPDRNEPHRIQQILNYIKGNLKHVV
Briefly: Human HDAC enzyme inhibitor Fluor-de-Lys assay, HDAC8. To be noted: recombinant human HDAC8, Fluor-de-Lys assay.

T1 sequence (Q92769 whole entry): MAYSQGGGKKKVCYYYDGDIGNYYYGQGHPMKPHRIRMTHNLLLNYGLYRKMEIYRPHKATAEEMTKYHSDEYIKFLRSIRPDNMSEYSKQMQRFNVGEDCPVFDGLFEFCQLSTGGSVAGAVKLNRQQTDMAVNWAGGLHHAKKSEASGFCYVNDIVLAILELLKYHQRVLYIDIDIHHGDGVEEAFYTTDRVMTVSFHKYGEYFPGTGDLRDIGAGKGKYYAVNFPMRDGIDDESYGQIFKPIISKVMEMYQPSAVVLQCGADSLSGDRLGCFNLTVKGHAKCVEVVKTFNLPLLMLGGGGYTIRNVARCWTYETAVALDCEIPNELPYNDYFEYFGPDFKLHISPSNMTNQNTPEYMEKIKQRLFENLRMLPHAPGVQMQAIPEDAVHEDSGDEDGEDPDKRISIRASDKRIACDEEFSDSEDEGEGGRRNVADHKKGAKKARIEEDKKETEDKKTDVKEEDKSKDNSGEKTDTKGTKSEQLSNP

As for `CCC(=O)CCCCC[C@H](NC(=O)C1CCC2(CC1)CN(C(C)C)C2)c1ncc(-c2cc3ccccc3nc2OC)[nH]1` [Compound 272], the IC50 at Recombinant human HDAC2 was found to be 8.2 nM; on HDAC6, 449 nM; on Recombinant human HDAC8, 1250 nM.
For `CCC(=O)CCCCC[C@H](NC(=O)CC1CC2(C1)CN(C(C)C)C2)c1ncc(-c2cc3ccccc3nc2OC)[nH]1` [Compound 273] the same measures were 3.4 nM, 400 nM and 1960 nM.
For `CCC(=O)CCCCC[C@H](NC(=O)C1(N)CC2(CN(C)C2)C1)c1ncc(-c2cc3ccccc3nc2OC)[nH]1` [Compound 276] the same measures were 9.1 nM, 1280 nM and 5000 nM.
For `CCC(=O)CCCCC[C@H](NC(=O)[C@H]1CC12CCN(C)CC2)c1ncc(-c2ccc(F)cc2)[nH]1` [Compound 280] the same measures were 122 nM, 11100 nM and 10800 nM.
With `CCC(=O)CCCCC[C@H](NC(=O)[C@H]1CC12CCN(C)CC2)c1ncc(-c2ccc(C(F)(F)F)cc2)[nH]1` [Compound 284], the figures for the IC50 at Recombinant human HDAC2, against HDAC6 and at Recombinant human HDAC8 were 82.1 nM, 13400 nM and 15000 nM, respectively.
For `CCC(=O)CCCCC[C@H](NC(=O)[C@H]1CC12CCN(C)CC2)c1ncc(-c2ccc(F)cc2F)[nH]1` [Compound 289] the same measures were 259 nM, 10400 nM and 3750 nM.
For `CCC(=O)CCCCC[C@H](NC(=O)[C@H]1CC12CCN(C)CC2)c1ncc(-c2ccccc2F)[nH]1` [Compound 290] the same measures were 73.5 nM, 5990 nM and 5230 nM.
For `CCC(=O)CCCCC[C@H](NC(=O)CC1CC2(CNC2)C1)c1ncc(-c2ccccc2)[nH]1` [Compound 297] the same measures were 120 nM, 8170 nM and 8460 nM.
For the compound `CCC(=O)CCCCC[C@@H](NC(=O)C1CCC2(CC1)CNC2)c1ncc(-c2ccccc2)[nH]1` [Compound 298], the IC50 on Recombinant human HDAC2 is 144 nM; at HDAC6, 5070 nM; at Recombinant human HDAC8 it was 1690 nM.
For `CCC(=O)CCCCC[C@H](NC(=O)C1CCC2(CC1)CNC2)c1nnc(-c2cc3ccccc3nc2OC)o1` [Compound 299] the same measures were 35.8 nM, 2360 nM and 27800 nM.
`CCC(=O)CCCCC[C@H](NC(=O)CC1CC2(C1)CN(C(C)=O)C2)c1ncc(-c2ccccc2)[nH]1` [Compound 300, (S)-2-(2-acetyl-2-azaspiro[3.3]heptan-6-yl)-N-(7-oxo-1-(5-phenyl-1H-imidazol-2-yl)nonyl)acetamide]: the IC50 on Recombinant human HDAC2 was 802 nM; at HDAC6, 23200 nM; on Recombinant human HDAC8, 11100 nM.
For `CCC(=O)CCCCC[C@H](NC(=O)CC1CC2(CNC2)C1)c1nnc(-c2cc3ccccc3nc2OC)o1` [Compound 301] the same measures were 77.6 nM, 3480 nM and 29500 nM.
The matching figures for `CCC(=O)CCCCC[C@H](NC(=O)C1CC12CCNCC2)c1nnc(-c2cc3ccccc3nc2OC)o1` (stereo partly drawn) [Compound 303]: 40.5 nM, 982 nM and 29200 nM.
The matching figures for `CCC(=O)CCCCC[C@H](NC(=O)[C@@H]1CC12CCN(C)CC2)c1nnc(-c2cc3ccccc3nc2OC)o1` [Compound 305]: 160 nM, 636 nM and > 45000 nM.
In the case of `CCC(=O)CCCCC[C@H](NC(=O)[C@H]1CC12CCN(C)CC2)c1nnc(-c2cc3ccccc3nc2OC)o1` [Compound 306], the IC50 at Recombinant human HDAC2 was 58.2 nM; on HDAC6, 1170 nM; on Recombinant human HDAC8 it was > 45000 nM.
For the compound `CCC(=O)CCCCC[C@H](NC(=O)CC1CC2(C1)CN(C)C2)c1ncc(-c2ccccc2)[nH]1` [Compound 307], the half-maximal inhibitory concentration (IC50) on Recombinant human HDAC2 was 617 nM; at HDAC6, 12100 nM; at Recombinant human HDAC8 it was 13500 nM.
With `CCC(=O)CCCCC[C@H](NC(=O)CC1CC2(C1)CN(C)C2)c1nnc(-c2cc3ccccc3nc2OC)o1` [Compound 308], the IC50 at Recombinant human HDAC2 was 97.7 nM; on HDAC6, 1280 nM; on Recombinant human HDAC8, > 45000 nM.
The matching figures for `CCC(=O)CCCCC[C@@H](NC(=O)C1CCC2(CC1)CN(C)C2)c1ncc(-c2ccccc2)[nH]1` [Compound 310]: 167 nM, 6050 nM and 6500 nM.
For `CCC(=O)CCCCC[C@H](NC(=O)CC1CC2(C1)CN(C)C2)c1ncc(-c2cc3ccccc3nc2OC)[nH]1` [Compound 314] the same measures were 5.1 nM, 405 nM and 2570 nM.
On to `CCC(=O)CCCCC[C@H](NC(=O)C1NC(=O)CC12CN(C)C2)c1ncc(-c2cc3ccccc3nc2OC)[nH]1` (stereo partly drawn) [Compound 317], for which the half-inhibitory concentration (IC50) at Recombinant human HDAC2 came to 5 nM; against HDAC6, 186 nM; on Recombinant human HDAC8, 4890 nM.
`CCC(=O)CCCCC[C@H](NC(=O)CC1CC2(C1)CN(C)C2)c1ncc(-c2cc3ccccc3nc2O)[nH]1` [Compound 326]: the values for the IC50 on Recombinant human HDAC2, against HDAC6 and on Recombinant human HDAC8 were 9 nM, > 1500 nM and > 4500 nM, respectively.
For `CCC(=O)CCCCC[C@H](NC(=O)[C@H]1CC12CCN(CC)CC2)c1ncc(-c2cnc3cc(C(F)(F)F)ccc3c2)[nH]1` [Compound 341] the same measures were 2.5 nM, 8970 nM and 11900 nM.
The matching figures for `CCC(=O)CCCCC[C@H](NC(=O)[C@H]1CC12CCN(C)CC2)c1ncc(-c2ccc3ccc(C)nc3c2F)[nH]1` [Compound 354]: 11.3 nM, 354 nM and 798 nM.
For `CCC(=O)CCCCCC(NC(=O)C1CCC2(CC1)OC(=O)c1ccncc12)c1nnc(-c2cc3ccccc3nc2OC)o1` (stereo not drawn) [Compound 363] the same measures were 234 nM, 2040 nM and 25500 nM.
For the compound `CCC(=O)CCCCCC(NC(=O)C1CCC2(CC1)OC(=O)c1cnccc12)c1nnc(-c2cc3ccccc3nc2OC)o1` (stereo not drawn) [Compound 364], the IC50 on Recombinant human HDAC2 was found to be 248 nM; on HDAC6, 1990 nM; on Recombinant human HDAC8, 32100 nM.

In general, IC50 refers to the concentration that gives 50% inhibition.
